From patent US10538567B2, “Compounds as peptidic trigonal GLP1/glucagon/GIP receptor agonists” (priority 2016, dated 2020)
Numbered stars: 1 amine (or outer) side, 2 acyl side, 3 side chain; on linkers, the order of the positions; unused ones are H or OH. Square brackets hold non-standard residues; d marks the D form. Side chains are listed from the residue outwards. Peptide text beside a SMILES is read from it. * marks the point of attachment. γGlu = O=C(O)[C@H](CCC(=O)[*:2])N[*:1]; Palmitoyl = CCCCCCCCCCCCCCCC(=O)*; Aib = CC(C)(N)C(=O)O

How the values were obtained:
[1] = tested on: male ApoE KO mice; assay: Anti-atherosclerotic activity in ApoE KO mice, 16 weeks minipump infusion; assay type: in vivo; details: 150 μg/kg/day
Text: The apolipoprotein E (ApoE) knockout (KO) mouse model is widely used to investigate atherosclerosis. These mice spontaneously develop atherosclerotic lesions that are morphologically similar to those observed in humans (Meir & Leitersdorf 2004, Arterioscler Thromb Vasc Biol 24: 1006-1014, Rosenfeld et al. 2000, Arterioscler Thromb Vasc Biol 20: 2587-2592).
Male ApoE KO mice (B.129P2-apoetm1Unc/J) were randomly allocated to control or treatment groups (N=15 per group); wild-type mice (C57BL6/J) received vehicle treatment and acted as a second, healthy control.
ApoE KO and wild-type mice received constant 16 weeks infusion using subcutaneous osmotic minipumps (ALZET™) filled with either vehicle (sterile acetate buffer, pH 4.5), Peptides SEQ ID NO. 6 & SEQ ID NO. 11 (150 μg/kg/day) or with Liraglutide (600 μg/kg/day). Body weight and food intake was monitored throughout the study on a weekly basis.
Blood samples for blood lipid analysis were drawn before treatment and at weeks 7 and 16 to analyze total cholesterol, low density lipoprotein (LDL) cholesterol and high density lipoprotein (HDL) cholesterol (not shown).
The aorta was dissected and aortic atherosclerotic plaque formation was measured as absolute and relative plaque area (% oilred stained area of total aortic surface area) using quantitative and automated image analysis.

[2] = tested on: female diet-induced obese (DIO) C57BL/6 mice; assay: Acute and chronic effects after s.c. treatment in female diet-induced obese (DIO) C57BL/6 mice; assay type: in vivo
Description: Female C57BL/6NHsd mice were ordered group housed from Envigo RMS Inc., shipped group housed and remained group housed with shipped cage mates in shoebox caging with wood chip bedding until day 38 of the predose phase. At the study start mice were between 25-26 weeks old.
Mice were housed under vivarium conditions that included a 12 h light/dark cycle (light phase 04:00 AM-4:00 PM), room temperatures between 23-26° C. and a relative humidity between 30-70%. All animals had free access to water and a high fat diet (TD97366) for 16 weeks prior to pharmacological intervention (dosing phase). Feed was replaced with fresh feed weekly until and for the last time on day 38 of the predose phase. During the subsequent dosing phase, approximately 50% of the remaining feed were removed, replaced with fresh feed, and pellets were mixed evenly once per week.
On predose day 38, obese DIO mice were assigned to treatment groups (n=8) to match mean body masses between all DIO groups. An age-matched group with ad libitum access to a rodent maintenance diet (Teklad Global Diets Rodent 2014, pelleted) was included in the study as a lean control group. In the predosing phase from day 32 through 38, all study animals were treated with vehicle (Phosphate Buffered Saline, PBS, Gibco, without CaCl2 and MgCl2) once daily (s.c. approximately 0.2 mL/mouse).
On day 37 of the predose phase, the test article was diluted with PBS to a concentration of 100 μg/mL and aliquots of this stock solution were stored at approximately ≤−60° C. Stock aliquots were thawed for weekly use and thereafter stored in a refrigerator at approximately 4° C. The injected test article solution was prepared fresh once on each dosing day by diluting stock solution with PBS to achieve the desired concentration.
Mice were treated twice daily with a s.c. injection of PBS-vehicle or the test article for 28 days. The morning dosing was initiated and completed between 06:00 and 07:30 AM and the afternoon dosing between 2:00 and 3:30 PM. On day 28 of the dosing phase only the morning dose was administered. The applied volume was 5 ml/kg and the dose was adjusted to the most recent body mass recording of each individual.
Animals had unlimited access to water and feed during the experiment. On day 1 of the dosing phase approximately 5 μL of blood were collected via tail clips at hour 0 prior to the first s.c. dose of PBS-vehicle or test article and 1, 2, 3, 4, 6, and 24 hours post-dose in non-anesthetized animals. The 24 hour blood collection was performed prior to dosing on day 2. Between the 6 and 24 hour blood sample the afternoon dose was administered. Glucose measurements were performed in whole blood and in duplicate or triplicate using Aviva glucometers.
Body mass was measured daily approximately between 06:00-07:30 AM from day 32 through 38 of the predosing phase and throughout the 28 days of the dosing phase. During the dosing phase mice were treated twice daily with either a s.c. injection of PBS-vehicle or test article.
To determine whole body fat mass Quantitative Nuclear Magnetic Resonance (QNMR) measurements were performed on predosing day 37 and on day 26 of the dosing phase. During the dosing phase mice were treated twice daily with either a s.c. injection of PBS-vehicle or test article.
Feed consumption was based on the daily assessment of the feeder weights of each cage between 06:00-07:30 AM. Each cage housed four mice and feed consumption was calculated throughout the 28 days of the dosing phase. During the dosing phase mice were treated twice daily with either a s.c. injection of PBS-vehicle or test article.
On day 28 blood was collected prior to any other inlife activities for determination of plasma insulin concentrations. Then the morning dose was administered and necropsy was performed 4 hours post-dose. For this purpose animals were anesthetized with isoflurane and blood was collected by orbital bleeding. […]

[3] = Solubility assessment in solubility buffer system A; assay type: physicochemical; details: acetate buffer pH 4.5 with m-cresol; acetate buffer pH 4.5, 2.7 mg/ml m-cresol, target 10 mg/ml
Description: Prior to the solubility measurement of a peptide batch, its purity was determined through UPLC/MS.
Therefore solutions from solid samples were prepared in a buffer system with a concentration of 10 mg/mL compound based on the previously determined % purity:
Solubility buffer system A) Acetate Buffer pH 4.5, 100 mM sodium acetate trihydrate, 2.7 mg/ml m-Cresol
UPLC-UV was performed after 1 hour of gentle agitation from the supernatant, which was obtained after 15 min of centrifugation at 2500 RCF (relative centrifugal acceleration).
The solubility was determined by the comparison of the UV peak area of 2 μL-injection of a buffered sample diluted 1:10 with a standard curve of a reference peptide with known concentration. The different UV extinction coefficients of sample and reference peptide were calculated based on the different amino acid sequences and considered in the concentration calculation.
Peptide samples were prepared in solubility buffer system A and solubility was assessed as described in Methods.

SMILES: CCCCCCCCCCCCCCCC(=O)N[C@@H](CCC(=O)N[C@@H](CCC(=O)NCCCC[C@H](NC(=O)[C@H](CC(C)C)NC(=O)[C@H](CCCCN)NC(=O)[C@H](CO)NC(=O)[C@H](CC(C)C)NC(=O)[C@H](CC(=O)O)NC(=O)[C@H](CO)NC(=O)[C@@H](NC(=O)[C@H](Cc1ccccc1)NC(=O)[C@@H](NC(=O)CNC(=O)[C@H](Cc1c[nH]cn1)NC(=O)C(C)(C)NC(=O)[C@@H](N)Cc1c[nH]cn1)[C@@H](C)O)[C@@H](C)O)C(=O)N[C@@H](CCC(=O)O)C(=O)N[C@@H](CCC(=O)O)C(=O)N[C@@H](CCC(N)=O)C(=O)N[C@@H](CCCNC(=N)N)C(=O)N[C@@H](CCC(N)=O)C(=O)NC(C)(C)C(=O)N[C@@H](CCC(=O)O)C(=O)N[C@@H](Cc1ccccc1)C(=O)N[C@H](C(=O)N[C@@H](CCC(=O)O)C(=O)N[C@@H](Cc1c[nH]c2ccccc12)C(=O)N[C@@H](CC(C)C)C(=O)N[C@@H](CCCCN)C(=O)N[C@@H](C)C(=O)N[C@H](C)C(=O)NCC(=O)N1CCC[C@H]1C(=O)N1CCC[C@H]1C(=O)N[C@@H](CO)C(=O)NC(C)(C)C(=O)N[C@@H](CCCCN)C(=O)N1CCC[C@H]1C(=O)N1CCC[C@H]1C(=O)N1CCC[C@H]1C(=O)N[C@@H](CCCCN)C(N)=O)[C@@H](C)CC)C(=O)O)C(=O)O [SEQ ID NO: 11, H-Aib-H-G-T-F-T-S-D-L-S-K-L-K[gGlu-gGlu-Palm]-E-E-Q-R-Q-Aib-E-F-I-E-W-L-K-A-dAla-G-P-P-S-Aib-K-P-P-P-K-NH2] (H-H[Aib]HGTFTSDLSKLK([γGlu-γGlu-Palmitoyl])EEQRQ[Aib]EFIEWLKA[dA]GPPS[Aib]KPPPK-NH2)
- reduction of atherosclerotic plaques relative to vehicle control ([1]; 4 months (16 weeks) s.c. minipump): 73%
- LDL-cholesterol ([1]; 16 weeks): marked reduction
- time until mice habituated to the feed intake suppression ([2]; DIO mice, 30 μg/kg s.c. twice-daily): approximately 15 days
- Feed consumption estimate ([2]; DIO mice, 30 μg/kg s.c. twice-daily, after dosing start): suppressed feed intake
- Blood glucose profile following first treatment ([2]; fed DIO mice, day 1, 30 μg/kg s.c., 0-24 hours post-dose): pronounced decrease in blood glucose concentrations that persisted over 24 hours
- solubility at 1 h [3]: > 9800 µg/mL
